Results as given in patent US11666547B2, “Methods for treating cognitive deficits in a subject having schizophrenia, bipolar disorder, or psychiatric depression, and exhibiting cognitive deficits by administering an antagonist of the Na+-K+-2Cl-cation-chloride cotransporter isoform 1 (NKCC1)” (NORTHWESTERN UNIVERSITY, priority 2019, dated 2023).

How the values were obtained:
[1] = tested on: pyramidal neurons of the infralimbic cortex (ILC) of scPCP mice; assay: GABAA reversal potential (EGABA), perforated patch recordings in acute mPFC slices; type: cell-based; conditions: bumetanide 0.3 mg/kg ip 30-40 min before dissection, 10 uM perfused into mPFC slice in incubation and recording chambers
Procedure: FIG. 4. (A) Left Panels: Example traces of GABAA current response by electrical stimulation in mPFC pyramidal neurons in control (top panel, black) and in scPCP (bottom, red). Bipolar electrode was put in layer 1, 100-200 um apart from recording site within layer2/3 with presence of 3 mM kynurenic acid to block any glutamatergic synaptic currents. The response was evoked by the same size of single stimulus (0.2-1 mA, 0.2 ms) at five different holding voltages (−100, −80, −60, −40, −20 mV) for each neuron. For each voltage, a neuron was tested multiple times and those 5-10 traces tested at the same voltage were averaged later for peak analysis. […] Right Panels: Example GABAA reversal potential (EGABA) of a neuron in control (top panel, black) and in scPCP (bottom, red) calculated from traces shown in (A). For the individual neuron, the peak size of current responses was measured (maximal current peak if the evoked response is positive while minimal current peak if negative) and plotted by holding voltages. […] Dotted gray lines to present average resting potentials for each group, which were measured by whole-cell patch recordings from separated neuron groups (each n>7). […] Dotted gray lines represent the resting potentials, which were measured by whole-cell patch recordings in different sets of experiment (each n>7). […]

scPCP mice = assay: Novel object recognition (NOR) test in subchronic phencyclidine (scPCP) mice; type: in vivo, C57BL/6J mice; conditions: for Discrimination index, novel object recognition (rescue of scPCP-induced NOR deficit): male C57BL/6J mice
Procedure: FIG. 7. Bumetanide treatment rescues the cognitive impairment in scPCP mice. Discrimination index calculated from novel object recognition tests. […] 10 mice were measured for each experimental group.
FIG. 8. Bumetanide rescues Novel Object Recognition task in female scPCP mice. […] Data are from 9 mice per group. One-way ANOVA followed by post-hoc bonferroni correction was done where significance was observed. p<0.01. (Additional data not shown).
To begin filling this gap, here we took advantage of the subchronic phencyclidine (scPCP) treatment, which is a well-established established rodent model of cognitive deficits in schizophrenia (Jentsch and Roth, 1999; Steeds et al. 2015) and performed patch clamp recordings from pyramidal neurons in acute slices of the IL cortex (ILC) and PL cortex (PLC). (FIG. 1).
Routine for mPFC recording. 3 week-old mice were injected with saline (vehicle) or PCP (0.1 mg/kg) two times a day for 7 consecutive days and rested for another 7 days without injections. They were then sacrificed for recordings within 7 days.

16p11.2DUP mice [2] = assay: Novel object recognition in 16p11.2 duplication mouse model; type: in vivo; conditions: 0.1 mg/kg, ip, p<0.001
Text: (§1) (See Yamasaki et al., “Alpha-CaMKII deficiency causes immature dentate gyrus, a novel candidate endophenotype of psychiatric disorders,” Molecular Brain, 1 (2008) 6; and McCarthy et al., “Microduplications of 16p11.2 are associated with schizophrenia,” Nat. Gene., 41 (2009) 1223-1227; respectively). Both models are relevant to human conditions. CaMK2A loss causes cognitive dysfunction and has been implication in psychiatric disorders including schizophrenia. (See Yamasaki et al., “Alpha-CaMKII deficiency causes immature dentate gyrus, a novel candidate endophenotype of psychiatric disorders,” Molecular Brain, 1 (2008) 6; Kool et al., “CAMK2-dependent Signaling in Neurons is Essential for Survival,” J. Neuroscience: the official journal of the Society for Neuroscience, 39 (2019) 5424-5439; and Papaleo et al., “Mouse models of genetic effects on cognition: relevance to schizophrenia,” Neuropharmacology, 62 (2012) 1204-1220). […] (See Niarchou et al., “Psychiatric disorders in children with 16p11.2 deletion and duplication,” Translational psychiatry, 9 (2019) 8). […] (FIG. 9).

16p11.2DUP mice [3] = assay: Y maze in 16p11.2 duplication mouse model; type: in vivo; conditions: 0.1 mg/kg, ip, p<0.001
Text: as §1

CaMK2A+/- mice [4] = type: in vivo; conditions: for Discrimination index, rescue of NOR deficit, single agent at the dose used in the combination: CaMKIIα+/- mice, agent alone
Text: as §1

CaMK2A+/- mice [5] = assay: Y maze in CaMK2A+/- mouse model; type: in vivo; conditions: 0.1 mg/kg, ip, p<0.001
Text: as §1

[6] = tested on: scPCP-treated mice subjected to chronic unpredictable stress; assay: Memory deficit in scPCP-treated mice subjected to chronic unpredictable stress (CUS); type: in vivo; conditions: chronic unpredictable stress 21 days, 0.1 mg/kg
Text: Bumetanide acts by blocking the NKCC1 cation-chloride cotransporter and causes the reversal potential of the GABAA-mediated current to become more hyperpolarized (thus the inhibitory effect becomes stronger). […] Most importantly, in-vivo administration of bumetanide rescues cognitive function in PCP mice and also prevents enduring deficit of cognitive function.

scPCP-treated mice = assay: PCP- and amphetamine-induced increase in locomotor activity in scPCP-treated mice; type: in vivo; conditions: bumetanide 0.3 mg/ml, icy
Text: This can be interpreted as evidence for ability to treat delusions and hallucinations in psychotic disorders, including schizophrenia, major depression, bipolar disorder, various dementias, including vascular dementia and other neurodegenerative disorders. These finding have immediate translational value, as bumetanide is an already approved drug that could be promptly used to improve cognition in patients with cognitive impairment, psychosis, or negative symptoms in the disorders cited above.

[7] = tested on: PCP model of cognitive impairment; assay: Prevention of development of cognitive impairment, given prior to PCP treatment; type: in vivo, mice; conditions: given prior to one week's treatment with PCP
Text: Bumetanide prevented the development of cognitive impairment when give prior to one weeks treatment with PCP. This is evidence that bumetanide could prevent the onset of cognitive impairment in schizophrenia and bipolar disorder. […] The discovery of these synergistic actions which will have value in the treatment of many neuropsychiatric disorders. Neurosteroids such as allopregnanolone is a GABA A agonist which could be used clinically with bumetanide to treat post-partum depression, other forms of depression.

PCP treated mouse = assay: Social interaction in the PCP treated mouse; type: in vivo

With `CCCCNc1cc(C(=O)O)cc(S(N)(=O)=O)c1Oc1ccccc1` [bumetanide] the “GABAA reversal potential in layer 2/3 and layer 5 of ILC” value [1] was “normalizes”, the “Performance in the novel object recognition task” value (scPCP mice; PCP-treated mice, oral administration of a single dose (FIG. 7)) was “completely rescues” and the “Novel Object Recognition test (rescue of scPCP-induced deficits)” value (scPCP mice; female C57BL/6J mice, single dose IP, p<0.01) was “significantly rescued”. The “Discrimination index, novel object recognition (rescue of scPCP-induced NOR deficit)” value (scPCP mice; 0.1 mg/kg, ip) was “completely rescues”, the “Discrimination index, novel object recognition (rescue of scPCP-induced NOR deficit)” value (scPCP mice; 0.3 mg/ml, icy) was “completely rescues” and the NOR performance (16p11.2DUP mice [2]) was “completely rescued”. The Y maze performance (16p11.2DUP mice [3]) was “completely rescued”, the NOR performance (CaMK2A+/- mice [4]; CaMK2A+/- mice, 0.1 mg/kg, ip, p<0.001) was “completely rescued” and the “Discrimination index, rescue of NOR deficit, single agent at the dose used in the combination” value (CaMK2A+/- mice [4]) was “sub-effective”. The Y maze performance (CaMK2A+/- mice [5]) was “completely rescued”, the Memory deficit [6] was “significantly rescued” and the “PCP-induced increase in locomotor activity” value (scPCP-treated mice; PCP 10 mg/kg) was “significantly blocked”. The “Amphetamine-induced increase in locomotor activity” value (scPCP-treated mice; amphetamine 2.5 mg/kg) was “significantly blocked”, the “Development of cognitive impairment” value [7] was “prevented” and the Social interaction (PCP treated mouse) was “effective”.

With `Cc1nc2n(c(=O)c1CCN1CCC(c3noc4cc(F)ccc34)CC1)CCCC2` [risperidone] the “Discrimination index, rescue of NOR deficit, single agent at the dose used in the combination” value (CaMK2A+/- mice [4]) was “ineffective”.
